Assay results from the NIST ThermoML archive (doi:10.1021/je100776x).

How the values were obtained:
[1] = refractive index (Na D-line) (dimensionless); conditions: 298.15 K; 101.33 kPa; Liquid; Standard Abbe refractometry
[2] = Liquid; for mass density: 298.15 K, 101.33 kPa, Vibrating tube method; for Normal boiling temperature: Ebulliometric method (Recirculating still)

CC(=O)CC(C)C [4-methylpentan-2-one]
Conditions | mass density [kg/m3] | refractive index
[1] | – | 1.3942
[2] | 796.03 | –

[2]
Conditions | vapor or sublimation pressure [kPa]
343.76 K | 22.45
346.51 K | 24.97
349.09 K | 27.43
351.46 K | 29.98
353.65 K | 32.46
355.76 K | 35.07
357.68 K | 37.44
359.54 K | 39.99
361.33 K | 42.54
362.97 K | 44.96
364.61 K | 47.52
366.15 K | 50.02
367.55 K | 52.44
369.05 K | 55.08
370.35 K | 57.48
371.66 K | 59.96
372.96 K | 62.51
374.22 K | 65.08
375.35 K | 67.44
376.56 K | 70.07
377.63 K | 72.41
378.73 K | 74.98
379.78 K | 77.41
380.83 K | 79.93
381.84 K | 82.44
382.84 K | 84.96
383.8 K | 87.44
384.71 K | 89.85
385.67 K | 92.47
386.6 K | 95.07
387.45 K | 97.46
387.82 K | 98.52
388.33 K | 99.98
388.78 K | 101.33

C1=CCCCC1 [cyclohexene]
Conditions | Normal boiling temperature [°C] | mass density [kg/m3] | refractive index
[1] | – | – | 1.4444
[2] | 82.82 | 805.69 | –

C1CCCCC1 [cyclohexane]
Conditions | Normal boiling temperature [°C] | mass density [kg/m3] | refractive index
[1] | – | – | 1.4238
[2] | 80.58 | 773.82 | –
